Data on two molecules can be found in paper PMC12299904, “Purine–Hydrazone Scaffolds as Potential Dual EGFR/HER2 Inhibitors” (Pharmaceuticals, 2025).

“And” between values parts separate entries of the source, which are not always exact repeats. Equal values may be shown once. Read-outs that look alike come from different tables or passages of the source.

One series has as its system A2780 cells. Nature of the series: In vitro cytotoxicity assay (MTT), A2780. It is filed as cell-based. Particulars: Homo sapiens, 48 h, read-out: percentage of cell viability, A2780.
In the next series the test system is SKBR-3 cells. Briefly: In vitro cytotoxicity assay (MTT), SKBR-3. It is filed as cell-based, human. To be noted: for IC50: MTT, 48 h, mean ± SD, three experiments. Here is the method: (§1) The selected cell lines include A549, a lung cancer cell line that is characterized by its high expression of EGFR; SKOV-3, an ovarian cancer cell line, selected for its overexpression of both EGFR and HER2; and the breast cancer cell line (SKBR-3), characterized by HER2 overexpression.
(§2) Cells were passaged regularly at around 80% confluency using […] and maintained in 75 cm^2 flasks at 37 °C in a humidified atmosphere containing 5% CO2.
(§3) Approximately 10 × 10^3 cells were seeded per well of the 96-well plates using drug-free media and incubated for 24 h. […] After 48 h of drug exposure, the supernatant was aspirated, and the cells were washed with 100 μL of PBS. The MTT assay was performed by creating a stock solution of MTT at a concentration of 5 mg/mL in PBS. From this stock, a solution of MTT in the cell culture media was prepared to achieve a final concentration of 0.5 mg/mL. […] The MTT solution was thereafter removed, and the generated formazan crystals were dissolved by adding 100 μL of propanol/DMSO (50:50) per well. Absorbance was measured at 570 nm, and IC50 values for each compound were calculated by comparison against negative untreated controls.

The subject of series [1] is A549, SKOV-3, A2780, SKBR-3 cells. Nature of the series: MTT assay, ranges stated over several cell lines. It is filed as cell-based, human. The procedure: as §1, §2, §3
On the technique in general: Formazan colour is commonly taken as a measure of viable cells.

The subject of the next series is SKOV-3 cells. Nature of the series: In vitro cytotoxicity assay (MTT), SKOV-3. It is filed as cell-based, human. To be noted: for IC50: mean ± SD, three experiments. Here is the method:
as §1, §2, §3

A further series has as its target T1, HER2 (Homo sapiens, UniProt P04626).
T1 construct: purchased BPS Bioscience 40721
Briefly: In vitro enzyme inhibition assay, HER2 Kinase Assay Kit (BPS Bioscience). It is filed as biochemical. To be noted: three independent experiments; read-out: Protein Kinase Inhibition IC50, HER2.

A short description of series [2]: In vitro cytotoxicity assay (MTT), normal cell line MRC-5. It is filed as cell-based. Particulars: MRC-5 normal embryonic lung cells, normal human embryonic lung cell line, mean ± SD. Here is the method: as §2, §3
The next series has as its target T2, EGFR (Homo sapiens, UniProt P00533).
T2 construct: purchased BPS Bioscience 40321
Briefly: In vitro enzyme inhibition assay, EGFR Kinase Assay Kit (BPS Bioscience). It is filed as biochemical. To be noted: three independent experiments; read-out: Protein Kinase Inhibition IC50, EGFR.

A further series relates to A549 cells. Briefly: In vitro cytotoxicity assay (MTT), A549. Particulars: for IC50: mean ± SD, three experiments. Here is the method: as §1, §2, §3

T2 sequence (P00533 25-1210): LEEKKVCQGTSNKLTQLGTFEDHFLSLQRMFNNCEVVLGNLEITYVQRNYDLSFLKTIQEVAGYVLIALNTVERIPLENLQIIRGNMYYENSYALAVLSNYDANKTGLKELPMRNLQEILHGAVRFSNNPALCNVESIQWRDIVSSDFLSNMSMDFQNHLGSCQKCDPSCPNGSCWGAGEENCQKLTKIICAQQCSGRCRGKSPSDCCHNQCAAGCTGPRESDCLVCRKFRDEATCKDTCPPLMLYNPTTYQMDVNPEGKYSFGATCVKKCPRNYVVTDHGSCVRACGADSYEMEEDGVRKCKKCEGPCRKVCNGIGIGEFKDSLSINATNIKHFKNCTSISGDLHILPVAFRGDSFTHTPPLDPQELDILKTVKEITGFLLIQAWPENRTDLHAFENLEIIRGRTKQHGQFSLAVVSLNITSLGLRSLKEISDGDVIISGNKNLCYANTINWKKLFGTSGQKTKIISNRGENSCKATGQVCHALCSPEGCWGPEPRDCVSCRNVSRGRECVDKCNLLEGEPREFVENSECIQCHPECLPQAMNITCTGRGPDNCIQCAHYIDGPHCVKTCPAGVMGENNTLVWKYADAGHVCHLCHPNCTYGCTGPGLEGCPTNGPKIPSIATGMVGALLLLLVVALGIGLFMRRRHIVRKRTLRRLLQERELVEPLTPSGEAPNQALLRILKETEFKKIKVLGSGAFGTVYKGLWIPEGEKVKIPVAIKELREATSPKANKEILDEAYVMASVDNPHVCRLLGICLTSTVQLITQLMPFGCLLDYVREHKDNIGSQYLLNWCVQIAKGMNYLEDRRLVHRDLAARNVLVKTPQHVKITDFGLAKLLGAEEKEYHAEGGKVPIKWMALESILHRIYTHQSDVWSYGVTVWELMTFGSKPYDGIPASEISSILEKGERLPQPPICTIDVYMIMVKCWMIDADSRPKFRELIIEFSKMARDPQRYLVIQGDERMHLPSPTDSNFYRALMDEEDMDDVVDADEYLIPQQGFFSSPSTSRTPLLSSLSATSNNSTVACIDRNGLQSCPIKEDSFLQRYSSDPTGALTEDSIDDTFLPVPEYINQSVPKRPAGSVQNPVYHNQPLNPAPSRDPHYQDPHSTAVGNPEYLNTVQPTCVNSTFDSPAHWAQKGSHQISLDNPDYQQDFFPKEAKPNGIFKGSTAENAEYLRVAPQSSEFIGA
T1 sequence (P04626 23-1255): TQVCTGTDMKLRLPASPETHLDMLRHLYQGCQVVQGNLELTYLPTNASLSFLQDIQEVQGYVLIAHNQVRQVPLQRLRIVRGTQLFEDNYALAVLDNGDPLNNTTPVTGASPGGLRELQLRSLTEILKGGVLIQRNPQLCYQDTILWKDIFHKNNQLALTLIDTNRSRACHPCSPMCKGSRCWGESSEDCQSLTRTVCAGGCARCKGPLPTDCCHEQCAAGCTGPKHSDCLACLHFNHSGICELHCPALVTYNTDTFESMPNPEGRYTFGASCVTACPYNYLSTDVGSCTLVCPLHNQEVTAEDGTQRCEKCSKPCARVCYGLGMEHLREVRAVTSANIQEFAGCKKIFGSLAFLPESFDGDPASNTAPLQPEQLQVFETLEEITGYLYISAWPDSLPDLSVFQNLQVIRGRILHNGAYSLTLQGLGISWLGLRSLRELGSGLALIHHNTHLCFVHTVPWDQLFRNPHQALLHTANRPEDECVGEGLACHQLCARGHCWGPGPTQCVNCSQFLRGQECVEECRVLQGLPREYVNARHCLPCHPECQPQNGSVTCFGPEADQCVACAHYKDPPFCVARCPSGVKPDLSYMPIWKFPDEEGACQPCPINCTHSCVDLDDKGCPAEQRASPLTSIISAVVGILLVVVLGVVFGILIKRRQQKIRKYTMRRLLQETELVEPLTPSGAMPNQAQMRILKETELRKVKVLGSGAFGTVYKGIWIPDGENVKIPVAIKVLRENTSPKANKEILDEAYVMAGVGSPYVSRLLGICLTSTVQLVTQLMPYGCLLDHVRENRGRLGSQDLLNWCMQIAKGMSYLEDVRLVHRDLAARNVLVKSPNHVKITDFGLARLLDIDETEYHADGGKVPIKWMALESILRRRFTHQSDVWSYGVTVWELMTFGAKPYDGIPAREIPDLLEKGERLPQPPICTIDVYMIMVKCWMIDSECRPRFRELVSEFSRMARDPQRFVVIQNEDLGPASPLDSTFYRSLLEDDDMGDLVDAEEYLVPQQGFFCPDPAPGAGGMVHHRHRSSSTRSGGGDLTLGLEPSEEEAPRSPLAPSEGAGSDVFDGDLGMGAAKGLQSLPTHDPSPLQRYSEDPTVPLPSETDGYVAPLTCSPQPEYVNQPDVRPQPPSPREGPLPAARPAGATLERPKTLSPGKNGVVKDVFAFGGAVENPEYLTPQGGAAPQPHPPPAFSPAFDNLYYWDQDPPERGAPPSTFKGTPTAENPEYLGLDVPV

What is called viability is a read-out of living cells in per cent, often relative to untreated cells. A word on the IC50: it is the concentration that inhibits the measured activity by half. With `O=C(N/N=C/c1cccc(C(F)(F)F)c1)c1ccc(Nc2ncnc3c2ncn3C2CCCC2)cc1` [16b, (E)-4-((9-cyclopentyl-9H-purin-6-yl)amino)-N′-(3-(trifluoromethyl)benzylidene) benzohydrazide], the viability at 10 µM in the series with A2780 cells stood at 16%; with SKOV-3 cells (Homo sapiens, SK-OV-3, 10 µM, 48 h, MTT, read-out: percentage of cell viability, SKOV-3), 26%; in the series with A549 cells (Homo sapiens, A549, 48 h, read-out: percentage of cell viability, A549) it was 27%. Further, the IC50 in the series with SKBR-3 cells (Homo sapiens, SK-BR-3, 48 h) was 4.3 ± 0.94 µM; in the series on SKBR-3 cells, 4.31 ± 0.948 µM; with SKOV-3 cells (Homo sapiens, SK-OV-3, 48 h, MTT, 48 h), 1970 ± 70 nM; in the series with SKOV-3 cells (MTT, 48 h) it was 1980 ± 70 nM; at HER2, 45 ± 10 nM; on EGFR, 60 nM and 62 nM. In addition, the half-maximal inhibitory concentration (IC50) in the series on A549 cells (Homo sapiens, A549, 48 h, read-out: Cytotoxicity (IC50), A549, MTT, 48 h) was 2600 ± 350 nM; in the series with A549 cells (read-out: Cytotoxicity (IC50), A549, MTT, 48 h), 2600 ± 351 nM. In the series with SKBR-3 cells (IC50 against MRC-5/IC50 against SKBR-3), the “Selectivity index (SI), SKBR-3” value is given as 8.51. Also, the “Selectivity index (SI) range across cancer cell lines” value in series [1] (IC50 MRC-5/IC50 cancer cell line, A549, SKOV-3, SKBR-3) is recorded as 8.51–18.55. Besides, in the series on SKOV-3 cells (IC50 against MRC-5/IC50 against SKOV-3), the “Selectivity index (SI), SKOV-3” value was found to be 18.55. This molecule also had an IC50 at 48 h in series [2] of 36.65 ± 0.2 µM. Moreover, in the series with A549 cells (IC50 against MRC-5/IC50 against A549), the “Selectivity index (SI), A549” value is reported as 14.07.
For `O=C(N/N=C/c1cccc2ccccc12)c1ccc(Nc2ncnc3c2ncn3C2CCCC2)cc1` [23b, (E)-4-((9-cyclopentyl-9H-purin-6-yl)amino)-N′-(naphthalen-1-ylmethylene)benzohydrazide], the viability at 10 µM in series [1] (Homo sapiens, 10 µM, 48 h, A549 and SKOV-3, read-out: cell viability range for A549 and SKOV-3) was 81 to 100%.
